This is an account of results in US20260091078A1, “OLIGOPEPTIDE THAT INHIBITS ANGIOGENESIS AND VASCULAR FUNCTION” (UNIVERSIDAD NACIONAL AUTONOMA DE MEXICO, priority 2019, published 2026).

Experiment [1] has as its system immortalized bovine umbilical-vein endothelial cells (BUVEC E6E7). The experiment is described as follows: Proliferation of BUVEC E6E7 endothelial cells stimulated with VEGF (EdU click assay). The following applies: 100 nM, VEGF 50 ng ml^-1. It is filed as cell-based. The method, then:
(§1) On a 96-well plate treated for cell culture, BUVEC E6E7 and HUVEC cells were seeded at a density of ˜14,000 and ˜11,000 cells cm^−2, respectively. BUVEC E6E7 cells were maintained in F12K culture media with 10% (v/v) fetal bovine serum (FBS) and the HUVEC in F12K media supplemented with 20% of FBS, 100 μg ml^−1 heparin and 25 μg ml^−1 of endothelial cell growth supplement (ECGS). After 24 hours, the cells were starved with FBS-reduced media (0.1% of FBS for BUVEC E6E7 and 0.5% for HUVEC) for 16 hours to synchronize cells in phase GO of the reproductive cycle. After this time, FBS and heparin were replenished only to HUVEC. The cells were then treated with vasoinhibin or the oligopeptide THGRGFI in concentrations ranging from 0.001 to 100 nM for 24 hours in the presence of 10 μM of the thymidine analog 5-Ethynyl-2′-deoxyuridine (EdU) and 50 ng ml^−1 VEGF for the BUVEC E6E7 or the combination of 25 ng ml^−1 VEGF and 20 ng ml^−1 bFGF for HUVEC. At the end of the experiment, cells were fixed with 4% paraformaldehyde, permeabilized with 0.5% Triton X-100 in TBS1x, and stained to detect the newly synthetized DNA by the incorporation of EdU using the “click” assay (which involves a copper catalyzed reaction to covalently bind fluorescent azide to the EDU incorporated to DNA). Total DNA was counterstained with Hoechst 33342 and the “click”-stained nuclei were quantified and plotted relative to the total number of Hoechst 33342-stained nuclei.
For the assay, BUVEC E6E7 cells were seeded at a density of ˜14′000 cells cm^−2 in a 96 well plate with F12K with 10% (v/v) FBS. After 24 hours, cells were starved with 0.1% of FBS for GO synchronization for ˜16 hours. Next, the cells were treated with the different oligopeptides in presence of 10 μM of the thymidine analog EdU and 50 ng ml^−1 of VEGF. Finally, the cells were fixed, permeabilized, and stained for the newly synthetized DNA by the EdU incorporation through the ‘click’ assay. The total DNA was stained with Hoechst 33342 and the percentage of ‘click’-stained nuclei over the total nuclei was a measure of proliferation.

Experiment [2] relates to human umbilical-vein endothelial cells (HUVEC). Briefly: Proliferation of HUVEC stimulated with VEGF and bFGF (EdU click assay). It is filed as cell-based. The following applies: for dose-response effect (biological potency) on proliferation of HUVEC: different doses, 24 hours, VEGF 25 ng ml^-1 and bFGF 20 ng ml^-1. The protocol:
as §1
HUVEC were seeded on a 96 well plate at a density of ˜11,000 cells cm^−2 and maintained in F12K supplemented with 20% of FBS, 100 μg ml^−1 heparin and 25 μg ml^−1 endothelial cell growth supplement (ECGS). After 24 hours, the cells were synchronized in GO with starving conditions (FBS 0.5%) for 16 hours, and after that FBS and the heparin were replenished. Cells were then treated with THGRGFI, the different oligopeptides and 123 amino acids vasoinhibin, each in a concentration of 100 nM, for 24 hours in presence or absence of 10 μM of thymidine analog 5-Ethynyl-2′-deoxyuridine (EdU) and a combination of 25 ng ml^−1 VEGF and 20 ng ml^−1 bFGF. Finally, the cells were fixed with 4% paraformaldehyde, permeabilized with 0.5% of Triton X-100 in TBS1x and stained for the newly synthetized DNA with the ‘click’ method that detects the EdU incorporation. Total DNA was stained with Hoechst 33342 and the percentage of ‘click’-stained nuclei relative to total nuclei (Hoechst 33342-stained) indicated cell proliferation.
Approximately 11,000 HUVEC cells cm^−2 were seeded on a 96 well plate in F12K media with 20% FBS, 100 μg ml^−1 heparin and 25 μg ml^−1 ECGS. After 24 hours, cells were starved with 0.5% of FBS for ˜16 hours, and after that time the FBS and heparin were added again and cells treated with different doses of the alanine substituted oligopeptides for 24 hours, in the presence of EdU and a combination of 25 ng ml^−1 VEGF and 20 ng ml^−1 bFGF. Finally, the cells were fixed, permeabilized and stained to quantify the synthesis of DNA as a sign of proliferation.

“GFITKAI (Amino acids 49 to 55 of human prolactin; listed as Homo sapiens)”: the “effect on VEGF-induced proliferation of BUVEC E6E7 at single concentration” value in experiment [1] is reported as “did not shown any activity”.
Consider “Thr His Gly Arg (THGR; Amino acids 45 to 48 of human prolactin; listed as Homo sapiens)”, for which the “dose-response effect (biological potency) on proliferation of HUVEC” value in experiment [2] is given as “very similar to the oligopeptide THGRGFI”.
Consider “THIRGGF (scrambled sequence of SEQ ID NO 1) [Scr2, reference compound]”, for which the “effect on proliferation of HUVEC at single concentration” value in experiment [2] (100 nM, VEGF 25 ng ml^-1 and bFGF 20 ng ml^-1, 24 hours) is “did not have any effect”.
Regarding “TKAINSC (Amino acids 52 to 58 of human prolactin; listed as Homo sapiens)”, the “effect on VEGF-induced proliferation of BUVEC E6E7 at single concentration” value in experiment [1] was “did not shown any activity”.
Still for that read-out and setting: the same measure for “GRGFITK (Amino acids 47 to 53 of human prolactin; listed as Homo sapiens)”: “significatively inhibited the VEGF-induced proliferation of endothelial cells”.
Consider His Gly Arg [HGR], for which the “dose-response effect (biological potency) on proliferation of HUVEC” value in experiment [2] is given as “very similar to the oligopeptide THGRGFI”.
Regarding “R4A: THGRGFI with the arginine at position X4 substituted by alanine (THGAGFI)”, in experiment [2], the “dose-response effect (biological potency) on proliferation of HUVEC” value is “did not inhibit endothelial proliferation”.
